One molecule from publication PMC6934184, “Selective DNA-PKcs inhibition extends the therapeutic index of localized radiotherapy and chemotherapy” (The Journal of Clinical Investigation, 2019) can be followed below.

In general, inhibition refers to the drop in the measured response relative to a control, in per cent.

This assay concerns the target T1, MKNK1 (MNK1) (Homo sapiens, UniProt Q9BUB5).
T1 construct: purchased Thermo Fisher Scientific (Life Technologies) SelectScreen
Put plainly: SelectScreen Z'LYTE. It counts as biochemical. The procedure, abridged:
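Percent values come from Thermo SelectScreen profiling of NU5455, combining activity and binding assays. CSF1R was run in Z'LYTE format at Km app ATP, and CAMK1 in Adapta format with ATP listed at 10.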

T1 sequence (Q9BUB5 whole entry): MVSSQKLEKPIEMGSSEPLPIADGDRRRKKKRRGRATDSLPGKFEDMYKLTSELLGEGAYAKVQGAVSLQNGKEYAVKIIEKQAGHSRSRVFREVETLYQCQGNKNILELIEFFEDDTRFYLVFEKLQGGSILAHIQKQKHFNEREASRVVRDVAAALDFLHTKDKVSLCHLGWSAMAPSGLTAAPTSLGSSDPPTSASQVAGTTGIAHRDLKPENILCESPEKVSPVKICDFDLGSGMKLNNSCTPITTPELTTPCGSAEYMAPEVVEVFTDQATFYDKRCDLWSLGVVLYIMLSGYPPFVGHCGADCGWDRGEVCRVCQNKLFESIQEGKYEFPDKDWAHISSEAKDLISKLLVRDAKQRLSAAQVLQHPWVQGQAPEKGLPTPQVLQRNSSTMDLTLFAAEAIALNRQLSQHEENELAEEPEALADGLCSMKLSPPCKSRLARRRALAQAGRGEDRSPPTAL

As for `CN(C(=O)CN1CCOCC1)c1ccc2sc3c(-c4cccc5c(=O)cc(N6CC7CCC(C6)O7)oc45)cccc3c2c1` [NU5455], the inhibition at 1 µM was -10.7%.
